Experimental findings from patent US20260297080A1, “BICYCLIC COMPOUNDS AS CDK INHIBITORS” (BeOne Medicines I GmbH, priority 2022, published 2026) are described below.

Broadly, the IC50 is the concentration that inhibits the measured activity by half. High values mean lower potency, low ones higher potency.

The target in one test is CDK1/Cyclin B1 (Homo sapiens, UniProt P06493). Kind of test: CDK1/Cyclin B1 Biochemical Assay (TR-FRET), 0.015 mM ATP. As to conditions: 0.15 μM Rb (Ser780)-biotin substrate, pH7.0, 60 min preincubation, 120 min reaction, room temperature. The gist of the method:
(§1)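 Phosphorylation of a biotin-tagged Rb Ser780 peptide (0.15 μM) is measured by time-resolved FRET between a europium-labelled phospho-specific antibody and streptavidin-XL665. Compound (0–10 μM) sits with enzyme 60 min first; the kinase reaction then proceeds 120 min at room temperature, pH 7.0.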
For orientation: In TR-FRET formats the signal depends on donor and acceptor labels being close together.

In a further test the target is CDK2/Cyclin E1 (Homo sapiens, UniProt P24941). Kind of test: CDK2/Cyclin E1 Biochemical Assay (TR-FRET), 0.060 mM ATP. Conditions: 0.15 μM Rb (Ser780)-biotin substrate, pH7.0, 60 min preincubation, 120 min reaction, room temperature. An outline of the steps:
as §1

Each structure is given as a SMILES string.

Sequence of CDK1/Cyclin B1 (P06493 whole entry): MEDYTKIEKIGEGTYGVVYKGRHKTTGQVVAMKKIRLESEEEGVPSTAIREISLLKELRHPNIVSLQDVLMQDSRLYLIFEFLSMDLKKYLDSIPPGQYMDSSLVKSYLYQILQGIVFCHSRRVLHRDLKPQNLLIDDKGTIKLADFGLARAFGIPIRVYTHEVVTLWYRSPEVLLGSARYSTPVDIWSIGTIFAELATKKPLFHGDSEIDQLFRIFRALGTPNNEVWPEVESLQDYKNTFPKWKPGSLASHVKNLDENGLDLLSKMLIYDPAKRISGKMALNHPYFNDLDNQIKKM
Sequence of CDK1/Cyclin B1 (P14635 whole entry partner): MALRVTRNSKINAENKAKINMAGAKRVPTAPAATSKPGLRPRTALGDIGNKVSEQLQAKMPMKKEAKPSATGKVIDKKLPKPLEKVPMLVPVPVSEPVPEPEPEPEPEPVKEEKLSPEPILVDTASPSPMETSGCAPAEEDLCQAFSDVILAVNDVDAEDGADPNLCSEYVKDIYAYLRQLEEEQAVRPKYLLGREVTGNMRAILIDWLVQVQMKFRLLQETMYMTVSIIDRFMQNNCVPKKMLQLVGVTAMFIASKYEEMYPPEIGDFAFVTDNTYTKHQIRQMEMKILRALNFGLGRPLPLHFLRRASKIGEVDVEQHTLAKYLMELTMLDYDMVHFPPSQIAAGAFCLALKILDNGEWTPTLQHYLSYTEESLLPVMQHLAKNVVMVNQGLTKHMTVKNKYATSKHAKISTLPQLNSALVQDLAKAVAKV

With `CC(C)NC(=O)O[C@H]1CC[C@@H](c2cc(Nc3cc4c(cc3F)CNS4(=O)=O)n[nH]2)C1` (single isomer, unassigned) [Example 1b, cis-3-(3-((5-fluoro-1,1-dioxido-2,3-dihydrobenzo[d]isothiazol-6-yl)amino)-1H-pyrazol-5-yl)cyclopentyl isopropylcarbamate], the IC50 at CDK1/Cyclin B1 amounted to 0.259 µM; at CDK2/Cyclin E1 it was 0.018 µM.
Take `CC(C)NC(=O)O[C@H]1CC[C@@H](c2cc(Nc3ccc4c(c3)S(=O)(=O)NC4C)[nH]n2)C1` (single isomer, unassigned) [Example 5a, cis-3-(5-((3-methyl-1,1-dioxido-2,3-dihydrobenzo[d]isothiazol-6-yl)amino)-1H-pyrazol-3-yl)cyclopentyl isopropylcarbamate]: the IC50 on CDK1/Cyclin B1 stood at 0.049 µM; against CDK2/Cyclin E1, 0.0022 µM.
As to `CC(C)NC(=O)O[C@H]1CC[C@@H](c2cc(Nc3ccc4c(c3)S(=O)(=O)NC4C)[nH]n2)C1` (single isomer, unassigned) [Example 5b, cis-3-(5-((3-methyl-1,1-dioxido-2,3-dihydrobenzo[d]isothiazol-6-yl)amino)-1H-pyrazol-3-yl)cyclopentyl isopropylcarbamate], the IC50 was 0.014 µM at CDK1/Cyclin B1 and 0.001 µM against CDK2/Cyclin E1.
The matching figures for `CC(C)NC(=O)O[C@H]1CC[C@@H](c2cc(Nc3ccc4c(c3)S(=O)(=O)NC4C)[nH]n2)C1` (single isomer, unassigned) [Example 5c, cis-3-(5-((3-methyl-1,1-dioxido-2,3-dihydrobenzo[d]isothiazol-6-yl)amino)-1H-pyrazol-3-yl)cyclopentyl isopropylcarbamate]: 0.095 µM and 0.0042 µM.
The like results for `CC(C)NC(=O)O[C@H]1CC[C@@H](c2cc(Nc3ccc4c(c3)S(=O)(=O)NC4C)[nH]n2)C1` (single isomer, unassigned) [Example 5d, cis-3-(5-((3-methyl-1,1-dioxido-2,3-dihydrobenzo[d]isothiazol-6-yl)amino)-1H-pyrazol-3-yl)cyclopentyl isopropylcarbamate] were, in that order, 0.045 µM and 0.0029 µM.
For the compound `CC(C)NC(=O)O[C@@H]1CC[C@H](c2cc(Nc3ccc4c(c3)CS(=O)(=O)N4)n[nH]2)C1` (single isomer, unassigned) [Example 7a], the IC50 is 0.028 µM at CDK1/Cyclin B1 and 0.0009 µM on CDK2/Cyclin E1.
The like results for `CC(C)NC(=O)O[C@H]1CC[C@@H](c2cc(Nc3ccc4c(c3)CS(=O)(=O)N4)n[nH]2)C1` (single isomer, unassigned) [Example 7b] were, in that order, 0.017 µM and 0.0009 µM.
The like results for `CC(C)NC(=O)O[C@H]1CC[C@@H](c2cc(Nc3ccc4c(c3F)CNS4(=O)=O)n[nH]2)C1` (single isomer, unassigned) [Example 9a, cis-3-(3-((4-fluoro-1,1-dioxido-2,3-dihydrobenzo[d]isothiazol-5-yl)amino)-1H-pyrazol-5-yl)cyclopentyl isopropylcarbamate] were, in that order, 0.375 µM and 0.0045 µM.
The like results for `CC(C)NC(=O)O[C@H]1CC[C@@H](c2cc(Nc3ccc4c(c3F)CNS4(=O)=O)n[nH]2)C1` (single isomer, unassigned) [Example 9b, cis-3-(3-((4-fluoro-1,1-dioxido-2,3-dihydrobenzo[d]isothiazol-5-yl)amino)-1H-pyrazol-5-yl)cyclopentyl isopropylcarbamate] were, in that order, 0.094 µM and 0.0025 µM.
With `CC(C)NC(=O)O[C@H]1CC[C@@H](c2cc(Nc3cc4c(cc3F)S(=O)(=O)NC4)n[nH]2)C1` (single isomer, unassigned) [Example 12a, cis-3-(3-((6-fluoro-1,1-dioxido-2,3-dihydrobenzo[d]isothiazol-5-yl)amino)-1H-pyrazol-5-yl)cyclopentyl isopropylcarbamate], the IC50 was 0.921 µM against CDK1/Cyclin B1 and 0.01 µM on CDK2/Cyclin E1.
The like results for `CC(C)NC(=O)O[C@H]1CC[C@@H](c2cc(Nc3cc4c(cc3F)S(=O)(=O)NC4)n[nH]2)C1` (single isomer, unassigned) [Example 12b, cis-3-(3-((6-fluoro-1,1-dioxido-2,3-dihydrobenzo[d]isothiazol-5-yl)amino)-1H-pyrazol-5-yl)cyclopentyl isopropylcarbamate] were, in that order, 0.359 µM and 0.0093 µM.
As to `CC(C)NC(=O)O[C@H]1CC[C@@H](c2cc(Nc3ccc4c(c3Cl)CNS4(=O)=O)n[nH]2)C1` (single isomer, unassigned) [Example 38a, cis-3-(3-((4-chloro-1,1-dioxido-2,3-dihydrobenzo[d]isothiazol-5-yl)amino)-1H-pyrazol-5-yl)cyclopentyl isopropylcarbamate], the IC50 against CDK1/Cyclin B1 came out at 1.5 µM; on CDK2/Cyclin E1, 0.038 µM.
As to `CC(C)NC(=O)O[C@H]1CC[C@@H](c2cc(Nc3ccc4c(c3Cl)CNS4(=O)=O)n[nH]2)C1` (single isomer, unassigned) [Example 38b, cis-3-(3-((4-chloro-1,1-dioxido-2,3-dihydrobenzo[d]isothiazol-5-yl)amino)-1H-pyrazol-5-yl)cyclopentyl isopropylcarbamate], the IC50 worked out at 0.279 µM against CDK1/Cyclin B1 and 0.013 µM at CDK2/Cyclin E1.
The like results for `CCCNC(=O)O[C@H]1CC[C@@H](c2cc(Nc3ccc4c(c3Cl)CNS4(=O)=O)n[nH]2)C1` (single isomer, unassigned) [Example 39a, cis-3-(3-((4-chloro-1,1-dioxido-2,3-dihydrobenzo[d]isothiazol-5-yl)amino)-1H-pyrazol-5-yl)cyclopentyl propylcarbamate] were, in that order, 1.36 µM and 0.049 µM.
Take `CCCNC(=O)O[C@H]1CC[C@@H](c2cc(Nc3ccc4c(c3Cl)CNS4(=O)=O)n[nH]2)C1` (single isomer, unassigned) [Example 39b, cis-3-(3-((4-chloro-1,1-dioxido-2,3-dihydrobenzo[d]isothiazol-5-yl)amino)-1H-pyrazol-5-yl)cyclopentyl propylcarbamate]: the IC50 was 0.39 µM at CDK1/Cyclin B1 and 0.026 µM at CDK2/Cyclin E1.
The matching figures for `CC1(NC(=O)O[C@H]2CC[C@@H](c3cc(Nc4ccc5c(c4Cl)CNS5(=O)=O)n[nH]3)C2)CC1` (single isomer, unassigned) [Example 40a, cis-3-(3-((4-chloro-1,1-dioxido-2,3-dihydrobenzo[d]isothiazol-5-yl)amino)-1H-pyrazol-5-yl)cyclopentyl(1-methylcyclopropyl)carbamate]: 0.37 µM and 0.0054 µM.
The like results for `CC1(NC(=O)O[C@H]2CC[C@@H](c3cc(Nc4ccc5c(c4Cl)CNS5(=O)=O)n[nH]3)C2)CC1` (single isomer, unassigned) [Example 40b, cis-3-(3-((4-chloro-1,1-dioxido-2,3-dihydrobenzo[d]isothiazol-5-yl)amino)-1H-pyrazol-5-yl)cyclopentyl(1-methylcyclopropyl)carbamate] were, in that order, 0.181 µM and 0.0031 µM.
`CCCNC(=O)O[C@H]1CC[C@@H](c2cc(Nc3cc4c(cc3F)S(=O)(=O)NC4)n[nH]2)C1` (single isomer, unassigned) [Example 42a, cis-3-(3-((6-fluoro-1,1-dioxido-2,3-dihydrobenzo[d]isothiazol-5-yl)amino)-1H-pyrazol-5-yl)cyclopentyl propylcarbamate]: the IC50 on CDK1/Cyclin B1 worked out at 0.891 µM; on CDK2/Cyclin E1, 0.014 µM.
Consider `CCCNC(=O)O[C@H]1CC[C@@H](c2cc(Nc3cc4c(cc3F)S(=O)(=O)NC4)n[nH]2)C1` (single isomer, unassigned) [Example 42b, cis-3-(3-((6-fluoro-1,1-dioxido-2,3-dihydrobenzo[d]isothiazol-5-yl)amino)-1H-pyrazol-5-yl)cyclopentyl propylcarbamate], for which the values for the IC50 at CDK1/Cyclin B1 and at CDK2/Cyclin E1 were 0.128 µM and 0.0055 µM, respectively.
The matching figures for `CC1(NC(=O)O[C@H]2CC[C@@H](c3cc(Nc4cc5c(cc4F)S(=O)(=O)NC5)n[nH]3)C2)CC1` (single isomer, unassigned) [Example 44a, cis-3-(3-((6-fluoro-1,1-dioxido-2,3-dihydrobenzo[d]isothiazol-5-yl)amino)-1H-pyrazol-5-yl)cyclopentyl(1-methylcyclopropyl)carbamate]: 0.138 µM and 0.0013 µM.
The matching figures for `CC1(NC(=O)O[C@H]2CC[C@@H](c3cc(Nc4cc5c(cc4F)S(=O)(=O)NC5)n[nH]3)C2)CC1` (single isomer, unassigned) [Example 44b, cis-3-(3-((6-fluoro-1,1-dioxido-2,3-dihydrobenzo[d]isothiazol-5-yl)amino)-1H-pyrazol-5-yl)cyclopentyl(1-methylcyclopropyl)carbamate]: 0.091 µM and 0.0025 µM.
Take `CC(C)NC(=O)O[C@H]1CC[C@@H](c2cc(Nc3ccc4c(c3F)C(C)NS4(=O)=O)n[nH]2)C1` (single isomer, unassigned) [Example 51a, cis-3-(3-((4-fluoro-3-methyl-1,1-dioxido-2,3-dihydrobenzo[d]isothiazol-5-yl)amino)-1H-pyrazol-5-yl)cyclopentyl isopropylcarbamate]: the IC50 against CDK1/Cyclin B1 was 0.194 µM; at CDK2/Cyclin E1, 0.0025 µM.
The like results for `CC(C)NC(=O)O[C@H]1CC[C@@H](c2cc(Nc3ccc4c(c3F)C(C)NS4(=O)=O)n[nH]2)C1` (single isomer, unassigned) [Example 51b, cis-3-(3-((4-fluoro-3-methyl-1,1-dioxido-2,3-dihydrobenzo[d]isothiazol-5-yl)amino)-1H-pyrazol-5-yl)cyclopentyl isopropylcarbamate] were, in that order, 0.082 µM and 0.0033 µM.
